This is an account of results in patent publication US7947435B2, “Neuronal regeneration material screening method by ex vivo model” (Seoul National University Industry Foundation, priority 2007, dated 2011).

Test [1] has as its system spinal cord slices. Briefly: Histological analysis of spinal cord tissue slices (Luxol fast blue, H&E). It counts as cell-based, Sprague-Dawley rats. The following applies: spinal cord slices treated with 0.5 mg/ml lysolecithin for 17 hours, compared with the control; FIG. 1. The source says:
(§1) <1-2> Preparation of Spinal Cord Tissue Slices Sprague-Dawley rats at 16 days old were anesthetized and the spinal cord was extracted. The spinal cord was put into ice-cold HBSS (Hanks balanced salt solution). Thoracic and lumbar spinal cords were cult into 400 μm in thickness by using a tissue chopper (McIlwain tissue chopper, The Mickle Laboratory Engineering Co. LTD, England). Several spinal cord slices were loaded on 0.4 μm filter (Millicell-CM filters, Millipore, USA) placed on a 6 well plate. The spinal cord slices were cultured in 1 ml of 25% horse serum (Invitrogen, USA) containing 50% MEM (Invitrogen, USA) supplemented with Earl's salts, 25% HBSS (Invitrogen, USA), 20 mM HEPES (Sigma, USA) and 6 mg/ml of D-glucose (Duchefa, Netherlands). The culture conditions were 5% CO2, 37° C. and the medium was replaced with a fresh medium twice a week. <1-3> Demyelination by Lysolecithin
(§2) The spinal cord slices were cultured in vitro (DIV, days in vitro) for 7 days. After treating 0.5 mg/ml of lysolecithin, the slices were cultured at 37° C. for 17 hours to induce demyelination of axons (Birgbauer et al., J Neurosci Res, 78, 157-166, 2004). After inducing demyelination, the medium containing lysolecithin was replaced with 1 ml of fresh medium. […]

Test [2] concerns spinal cord slices. The test can be described thus: Immunofluorescent staining of lysolecithin-demyelinated spinal cord slices. The test is classed as cell-based, Sprague-Dawley rats. The note with it: spinal cord slices treated with 0.5 mg/ml lysolecithin for 17 hours, compared with the control; FIG. 1.
Source text: as §1, §2

On to lysolecithin, for which the “demyelination (myelin, Luxol fast blue staining)” value in the test with spinal cord slices [1] is “serious demyelination was observed”. Further, the MBP expression entry in the test on spinal cord slices [2] is “decreased”.
